Assay results from PubChem BioAssay (NCI).
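Values below derive from 48-hour exposures of cells grown in 96-well plates, with endpoints linearly interpolated between the two concentrations bracketing the appropriate inhibition level. The concentration for full growth arrest is given as TGI.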

Key:
Test in all cases: DTP human tumour cell line panel, 48 h
[1] = test system: HT29 colon
[2] = test system: ACHN renal
[3] = test system: SN12C renal
[4] = test system: BT-549 breast
[5] = test system: 786-0 renal
[6] = test system: MDA-N
[7] = test system: SF-268 CNS
[8] = test system: SF-295 CNS
[9] = test system: HCT-116 colon
[10] = test system: UACC-62 melanoma
[11] = test system: RXF 393 renal
[12] = test system: OVCAR-5 ovarian
[13] = test system: HOP-62 NSCLC
[14] = test system: NCI-H522 lung
[15] = test system: SK-MEL-5 melanoma
[16] = test system: CCRF-CEM leukemia
[17] = test system: SW-620 colon
[18] = test system: SK-MEL-2 melanoma
[19] = test system: MALME-3M melanoma
[20] = test system: OVCAR-3 ovarian
[21] = test system: HL-60(TB) leukemia
[22] = test system: OVCAR-4 ovarian
[23] = test system: U251 CNS
[24] = test system: MDA-MB-231 breast
[25] = test system: UO-31 renal
[26] = test system: SNB-75 CNS
[27] = test system: LOX IMVI melanoma
[28] = test system: OVCAR-8 ovarian
[29] = test system: IGROV1 ovarian
[30] = test system: EKVX NSCLC
[31] = test system: DU-145 prostate
[32] = test system: SK-OV-3 ovarian
[33] = test system: MDA-MB-435
[34] = test system: PC-3 prostate
[35] = test system: COLO 205 colon
[36] = test system: NCI-H226 lung
[37] = test system: HCT-15 colon
[38] = test system: NCI/ADR-RES ovarian
[39] = test system: SNB-19 CNS
[40] = test system: KM12 colon
[41] = test system: NCI-H23 lung
[42] = test system: SK-MEL-28 melanoma
[43] = test system: TK-10 renal
[44] = test system: A549 NSCLC
[45] = test system: NCI-H460 lung
[46] = test system: M14 melanoma
[47] = test system: RPMI-8226 leukemia
[48] = test system: HS 578T breast
[49] = test system: K-562 leukemia
[50] = test system: CAKI-1 renal
[51] = test system: A498 renal
[52] = test system: UACC-257 melanoma
[53] = test system: MOLT-4 leukemia
[54] = test system: T-47D breast
[55] = test system: MCF7 breast
[56] = test system: HOP-92 NSCLC
[57] = test system: SF-539 CNS
[58] = test system: HCC-2998 colon

## c1ccc(C2CC(=NC3CCCCC3)Nc3ccccc3N2)cc1 (stereo unspecified)
[1]
  TGI: > 100 µM
[2]
  TGI: > 100 µM
[3]
  TGI: > 100 µM
[4]
  TGI: > 100 µM
[5]
  TGI: > 100 µM
[6]
  TGI: > 100 µM
[7]
  TGI: > 100 µM
[8]
  TGI: > 100 µM
[9]
  TGI: > 100 µM
[10]
  TGI: > 100 µM
[11]
  TGI: > 100 µM
[12]
  TGI: > 100 µM
[13]
  TGI: > 100 µM
[14]
  TGI: 78.1 µM
[15]
  TGI: 43.7 µM
[16]
  TGI: > 100 µM
[17]
  TGI: > 100 µM
[18]
  TGI: > 100 µM
[19]
  TGI: 50.1 µM
[20]
  TGI: > 100 µM
[21]
  TGI: > 100 µM
[22]
  TGI: > 100 µM
[23]
  TGI: > 100 µM
[24]
  TGI: > 100 µM
[25]
  TGI: > 100 µM
[26]
  TGI: 78.4 µM
[27]
  TGI: 55.2 µM
[28]
  TGI: > 100 µM
[29]
  TGI: > 100 µM
[30]
  TGI: > 100 µM
[31]
  TGI: > 100 µM
[32]
  TGI: > 100 µM
[33]
  TGI: > 100 µM
[34]
  TGI: > 100 µM
[35]
  TGI: > 100 µM
[36]
  TGI: > 100 µM
[37]
  TGI: > 100 µM
[38]
  TGI: > 100 µM
[39]
  TGI: > 100 µM
[40]
  TGI: > 100 µM
[41]
  TGI: > 100 µM
[42]
  TGI: > 100 µM
[43]
  TGI: > 100 µM
[44]
  TGI: > 100 µM
[45]
  TGI: > 100 µM
[46]
  TGI: > 100 µM
[47]
  TGI: > 100 µM
[48]
  TGI: 94.8 µM
[49]
  TGI: > 100 µM
[50]
  TGI: > 100 µM
[51]
  TGI: 93.7 µM
[52]
  TGI: > 100 µM
[53]
  TGI: > 100 µM

## COc1cc(/C=C2\CCC(C)/C(=C\c3cc(OC)c(OC)c(OC)c3)C2=O)cc(OC)c1OC (stereo unspecified)
[1]
  TGI: 10.9 µM
[2]
  TGI: 13.1 µM
[3]
  TGI: 19.2 µM
[4]
  TGI: 3.53 µM
[5]
  TGI: > 100 µM
[6]
  TGI: 16.1 µM
[7]
  TGI: 34.4 µM
[54]
  TGI: > 100 µM
[9]
  TGI: > 100 µM
[10]
  TGI: 6.89 µM
[11]
  TGI: 6.36 µM
[12]
  TGI: 14.2 µM
[13]
  TGI: 9.3 µM
[15]
  TGI: 5.7 µM
[16]
  TGI: 4.1 µM
[17]
  TGI: > 100 µM
[18]
  TGI: 3.37 µM
[23]
  TGI: > 100 µM
[24]
  TGI: > 100 µM
[25]
  TGI: > 100 µM
[55]
  TGI: > 100 µM
[56]
  TGI: > 100 µM
[26]
  TGI: 50.8 µM
[27]
  TGI: > 100 µM
[28]
  TGI: 9.52 µM
[29]
  TGI: 6.58 µM
[30]
  TGI: 16.3 µM
[31]
  TGI: > 100 µM
[32]
  TGI: 62 µM
[33]
  TGI: > 100 µM
[34]
  TGI: 11.1 µM
[35]
  TGI: 5.2 µM
[37]
  TGI: 6.57 µM
[39]
  TGI: 18.4 µM
[40]
  TGI: 8.46 µM
[42]
  TGI: 25.2 µM
[43]
  TGI: 14 µM
[44]
  TGI: > 100 µM
[46]
  TGI: 4.42 µM
[47]
  TGI: 0.901 µM
[48]
  TGI: > 100 µM
[49]
  TGI: 6.26 µM
[50]
  TGI: 6.71 µM
[51]
  TGI: 6.06 µM
[52]
  TGI: 21.3 µM

## Cc1ccc(NC(=O)/C(Cc2nc3ccc([N+](=O)[O-])cc3[nH]c2=O)=N\NC(=O)C[n+]2ccccc2)c(C)c1
[1]
  TGI: > 100 µM
[2]
  TGI: 47.6 µM
[3]
  TGI: 98.1 µM
[4]
  TGI: > 100 µM
[57]
  TGI: > 100 µM
[5]
  TGI: 79.9 µM
[6]
  TGI: > 100 µM
[7]
  TGI: > 100 µM
[8]
  TGI: > 100 µM
[9]
  TGI: > 100 µM
[10]
  TGI: > 100 µM
[11]
  TGI: 73.1 µM
[12]
  TGI: > 100 µM
[13]
  TGI: > 100 µM
[14]
  TGI: 61.6 µM
[15]
  TGI: 55.4 µM
[16]
  TGI: 61.1 µM
[17]
  TGI: > 100 µM
[18]
  TGI: > 100 µM
[20]
  TGI: 59.3 µM
[21]
  TGI: 81.8 µM
[22]
  TGI: 46.6 µM
[23]
  TGI: > 100 µM
[24]
  TGI: 86.4 µM
[25]
  TGI: 41.1 µM
[55]
  TGI: > 100 µM
[56]
  TGI: > 100 µM
[26]
  TGI: > 100 µM
[27]
  TGI: > 100 µM
[28]
  TGI: 74 µM
[29]
  TGI: > 100 µM
[30]
  TGI: > 100 µM
[31]
  TGI: > 100 µM
[32]
  TGI: 56.5 µM
[33]
  TGI: > 100 µM
[34]
  TGI: > 100 µM
[35]
  TGI: > 100 µM
[36]
  TGI: > 100 µM
[37]
  TGI: > 100 µM
[38]
  TGI: > 100 µM
[39]
  TGI: > 100 µM
[40]
  TGI: > 100 µM
[41]
  TGI: > 100 µM
[42]
  TGI: > 100 µM
[43]
  TGI: 64.4 µM
[58]
  TGI: > 100 µM
[44]
  TGI: > 100 µM
[45]
  TGI: > 100 µM
[46]
  TGI: > 100 µM
[48]
  TGI: > 100 µM
[50]
  TGI: > 100 µM
[52]
  TGI: > 100 µM
[53]
  TGI: 88 µM
